# Assay results from patent publication US20260060239A1, “NATURAL-BASED SALICYLIC ACID POLY(ANHYDRIDE ESTER) HYDROGELS FOR AGRICULTURAL APPLICATIONS” (The Regents of The University of California, priority 2022, published 2026).
# Read-outs that look alike come from different tables or passages of the source.
# How the values were obtained:
# micro-tom tomato plants [1] = conditions: for percent plant growth (plant height) during dosage window: FIG. 9A
# Experimental: Exogenous application of salicylic acid favors plants under stress by regulating processes such as photosynthesis, membrane permeability, nutrient uptake, transpiration, and the activity of antioxidant enzymes. […] Final measurements of plant height, water content, root length, and tomato production yield were also performed.
# Micro-tom was germinated from seeds under hydroponic conditions and grown under vertical farming conditions. Soilless clay media was used, and smart fertilizer was applied. Plants were incubated under normal conditions for 16 days. Seedlings were then transplanted using pre-wet clay and incubated under normal conditions in Percival chambers with abundant water supply and regular water exchanges for an additional 34 days. The Percival chambers were used to mimic environmental conditions. The day and night cycles were set for 16 hour (day) at 25° C. followed by 8 hour (night) at 25° C. CO2 levels were maintained at 410 ppm with 70% relative humidity.
# Each plant was labeled, and initial measurements were taken including plant height, total number of leaves, branches, and total number of flower buds, flowers and tomatoes if applicable. Individual group pictures were taken as visual record and first dose was applied accordantly to the group's requirements and schedules (FIG. 7). Dose regimen was similar between all groups with a total duration of 7 days (Dosage Window). Doses were applied at days 0, 2 and 4 of the dosage window. Remaining water in the group trays were removed right before dose applications. Chemicals were applied as a powder directly in the clay surface avoiding contact with the plant. All plants received 75 mL right after dose application. At day 7, remaining water in the trays were removed, final plants measurements and visual observation was recorded. Death plants were removed from the study. Extra clay and fertilizer were added, and DI-water was applied to all plants: 150 mL to normal plants and 50 mL to drought plants to activate the fertilizer.
# micro-tom tomato plants [2] = test: Treatment window under drought stress conditions (water supply removed); type: in vivo; conditions: for first death under drought: FIG. 12
# Experimental: Plants were incubated under normal conditions for 16 days. […] The Percival chambers were used to mimic environmental conditions.
# (§1) All plants received 75 mL right after dose application. […] Death plants were removed from the study.
# (§2) The treatment window corresponds to the period of time where the groups were exposed to either normal conditions with abundant water supply or to intense drought stress conditions where the water supply was completely removed until plants were found dead. At day 48 of the plant cycle, groups correspondent to the drought condition had all the water removed from the tray and were kept in the chamber. Plants under normal conditions had regularly water exchange two times a week until the end of the plant cycle. All plants were closely monitored, and visible observations were recorded, including measurements of plant height, number of leaves, branches, flower buds, flowers, and tomatoed were taken regularly. Clay and fertilizer were applied as needed and dead plants were removed from the study.
# micro-tom tomato plants [3] = type: in vivo
# Experimental: The Percival chambers were used to mimic environmental conditions.
# as §1
# as §2, with “At” for “The treatment window corresponds to the period of time where the groups were exposed to either normal conditions with abundant water supply or to intense drought stress conditions where the water supply was completely removed until plants were found dead. At”
# The harvest day was determined by the abundant number of red tomatoes: plant measurements were performed as described above. Plants were removed from their pots and clay was washed out of the roots. Tomatoes were harvested, photographed, and measured (diameter, height and mass). Individual plants were also photographed. Root and plant length was recorded, and plant mass was measured using a scale.
# [4] = 3x: three dosages of 0.05 mmol SA
smiles,measurement,setting,value
"O=C(O)c1ccccc1O [SA, salicylic acid]",percent plant growth (plant height) during dosage window,micro-tom tomato plants [1]; 1x: single dose 0.15 mmol SA or equivalent,negligible
same,variation in the number of branches during dosage window,"micro-tom tomato plants [1]; 1x: single dose 0.15 mmol, FIG. 9B",decrease
same,stress and deaths after the dosage window,"micro-tom tomato plants [1]; 1x: single powder dose, 0.15 mmol SA (or equivalent in polymer) per plant, FIG. 8",more harmful
same,percent plant growth (plant height) during dosage window,micro-tom tomato plants [1]; [4],smaller than the DI-water control group
same,stress caused during dosage window,"micro-tom tomato plants [1]; 3x: three dosages of 0.05 mmol SA, compared with SA 1x",less significative
same,plants mortality right after treatment,micro-tom tomato plants [1]; compared with SAPAE,higher
same,first death under drought,"micro-tom tomato plants [2]; 1x: single dose 0.15 mmol SA or equivalent, day of treatment window",17 days
same,first death under drought,micro-tom tomato plants [2]; [4],20 days
same,flower production under drought stress,"micro-tom tomato plants [2]; 3x, 14 days treatment time point, flower buds, no opened flowers, FIG. 11",second-best group
same,plants dead at time of harvest,"micro-tom tomato plants [3]; 1x, across the study, FIG. 15",three
same,total number of red tomatoes per group,"micro-tom tomato plants [3]; 1x, harvest day, FIG. 19B",least number of red tomatoes
same,percent plant growth after 14 days,"micro-tom tomato plants [3]; 1x, normal conditions, FIG. 10A",lowest percent growth
same,variation of number of branches during the treatment window,"micro-tom tomato plants [3]; 1x, normal conditions, FIG. 13B",highest variation
same,roots holding the clay after removal from the pot,"micro-tom tomato plants [3]; 3x, harvest",stronger at holding the clay in place
same,total number of tomatoes per group,"micro-tom tomato plants [3]; 3x, harvest day, compared with DI water, FIG. 19A",similar
